# Experimental data from US6906059B2, “Pharmaceutical composition with protective action against oxidative/toxic substances, especially cardiotoxic substances” (Solvay Pharmaceuticals, priority 1999, dated 2005).
# Columns and labels:
# [1] = tested on: rats with adriamycin-induced cardiomyopathy; experiment: Inhibition of the pro-oxidative action of adriamycin in rats (plasma α-tocopherol, lipid peroxides, ferroxidase activity); format: in vivo, male Wistar rats; conditions: for Lipid peroxides (measured as malonic dialdehyde thiobarbituric acid adducts) in plasma / α-Tocopherol (Vitamin E) in plasma / Ferroxidase activity in plasma: X ± SEM
# Protocol: The left-ventricular myocardial hydroxyproline concentration, which is a measurement of cardiac fibrous tissue growth, was less in the animals treated with test substance (group 3) than in the control animals treated with adriamycin (group 2). […] If the test substance was also administered in addition to adriamycin (group 3), the adriamycin-induced increase in the hydroxyproline content could be reduced by about 13% compared with animals treated with placebo (group 2). […] The animals were divided into 4 groups:
# 1. untreated animals (=control animals, n=19);
# 2. animals treated with adriamycin (+placebo instead of test substance, n=14);
# 3. animals treated with test substance (n=11);
# 4. animals treated with adriamycin and test substance (n=14).
# (§1) The test substance used was (3S,2R′)-3-{1-[2′-(ethoxycarbonyl)-4′-phenyl-butyl]-cyclopentane-1-carbonylamino}-2,3,4,5-tetrahydro-2-oxo-1H-1-benzazepin-1-acetic acid, being representative of the substances of Formula I usable according to the invention.
# The animals of groups 2 and 4 were administered 15 mg/kg adriamycin intraperitoneally over a period of two weeks. The animals of group 4 were administered 30 mg/kg of the test substance daily for two weeks with their food, starting with the first day of adriamycin treatment. The animals of group 3 were likewise administered 30 mg/kg of the test substance daily for two weeks with their food (but without adriamycin).
# Once the two-weeks' treatment had ended, the animals were anaesthetised with pentobarbital (50 mg/kg i.p.) and venous blood samples were taken, from which plasma was obtained. The concentration of lipid-peroxides and the ferroxidase activity in the plasma was measured using the methods of Wong, S. H. Y. et al., Clin. Chem. 33, 214-220, 1987 or Johnson, D. A. et al., Clin. Chem. 13, 142-150, 1967. Furthermore, the α-tocopherol concentration in the plasma was measured using the method of Catignani, G. L. and Bieri, J. G., Clin. Chem. 29, 708-712, 1983.
# [2] = tested on: rabbits with adriamycin-induced cardiomyopathy; experiment: Reduction of adriamycin-induced cardiac remodelling processes in the rabbit heart (heart/body weight ratio, hydroxyproline content); format: in vivo; conditions: for Ratio of heart weights to body weight: X ± SEM, n = 8
# Protocol: • A) The tests were carried out on rabbits of both sexes having an initial body weight of 2.1±0.2 kg. The animals were divided into 3 groups:
# 1. untreated animals (=control animals, n=20);
# 2. animals treated with adriamycin (+placebo instead of test substance, n=8);
# as §1, with “3. animals treated with adriamycin and test substance (n=8). • The” for “The”, “which is” for “being”
# Groups 2 and 3 were administered 1 mg/kg adriamycin i.v. twice a week for 4 weeks. Group 3 of rabbits having adriamycin-induced cardiomyopathy was administered a daily oral dose of the test substance (30 mg/kg body weight) for 4 weeks, starting on the first day of adriamycin treatment, with their food. Once the 4 weeks had ended, the hearts were isolated and weighed. Then they were fixed with formalin for later biochemical investigations (hydroxyproline content of the heart tissue, measured with the HPLC amino acid analysis after Blankenship, D. T. et al., Aunal. Biochem. 178, 227-232, 1989 and Schuster, R., J. Chromatogr. 431, 271 -284, 1989). Both the increase in heart weight in relation to body weight and the hydroxyproline content in the heart tissue compared with normal values are indicators of remodelling processes taking place in the heart.
# [3] = Group 2: adriamycin 15 mg/kg i.p. over two weeks + placebo, n = 14
# [4] = group 2 (adriamycin) v. group 1 (control)
# [5] = group 2 (adriamycin) v. group 1 (untreated)
# [6] = Group 3: test substance 30 mg/kg daily with food for two weeks, no adriamycin, n = 11
# [7] = Group 4: adriamycin 15 mg/kg i.p. + test substance 30 mg/kg daily, two weeks, n = 14
# [8] = adriamycin + test substance v. adriamycin + placebo
# [9] = group 4 v. group 2 (adriamycin + placebo)
# [10] = test substance alone v. untreated
# [11] = adriamycin + test substance 30 mg/kg daily oral v. adriamycin + placebo, 4 weeks
compound,measurement,setting,value
"COc1cccc2c1C(=O)c1c(O)c3c(c(O)c1C2=O)C[C@@](O)(C(=O)CO)C[C@@H]3O[C@H]1C[C@H](N)[C@H](O)[C@H](C)O1 [adriamycin, reference compound]",Lipid peroxides (measured as malonic dialdehyde thiobarbituric acid adducts) in plasma,[1]; [3],4.476 ± 0.404 µmol/L
same,α-Tocopherol (Vitamin E) in plasma,[1]; [3],338.2 ± 28.0 µg/dL
same,Increase of concentration of lipid peroxides in the rat plasma,[1]; [4],about 131%
same,Increase of total activity of the ferroxidase in the rat plasma,[1]; [4],about 22%
same,Ratio of heart weights to body weight,[2]; Group 2: adriamycin 1 mg/kg i.v. twice a week for 4 weeks + placebo,3.39 ± 0.13 g/kg
same,Increase of heart/body weight ratio compared with untreated control group,[2]; [5],about 69%
same,Increase of myocardial hydroxyproline content compared with untreated control group,[2]; [5],about 60%
"CCOC(=O)[C@H](CCc1ccccc1)CC1(C(=O)N[C@H]2CCc3ccccc3N(CC(=O)O)C2=O)CCCC1 [test substance, (3S,2R′)-3-{1-[2′-(ethoxycarbonyl)-4′-phenyl-butyl]-cyclopentane-1-carbonylamino}-2,3,4,5-tetrahydro-2-oxo-1H-1-benzazepin-1-acetic acid]",Ferroxidase activity in plasma,[1]; [6],0.2545 ± 0.0104 IU/l
same,Lipid peroxides (measured as malonic dialdehyde thiobarbituric acid adducts) in plasma,[1]; [6],2.319 ± 0.086 µmol/L
same,α-Tocopherol (Vitamin E) in plasma,[1]; [6],657.8 ± 21.0 µg/dL
same,Ferroxidase activity in plasma,[1]; [7],0.2534 ± 0.0128^+ IU/l
same,Lipid peroxides (measured as malonic dialdehyde thiobarbituric acid adducts) in plasma,[1]; [7],3.030 ± 0.235^+++ μmol/l
same,α-Tocopherol (Vitamin E) in plasma,[1]; [7],407.9 ± 33.0 µg/dL
same,"% Effect of the test substance on plasma ferroxidase activity, Group 4 v. 2",[1]; [8],−23.0%
same,"% Effect of the test substance on plasma lipid peroxides, Group 4 v. 2",[1]; [8],−32.3%
same,"% Effect of the test substance on plasma α-tocopherol, Group 4 v. 2",[1]; [8],+20.6%
same,Increase of α-tocopherol content in the plasma,[1]; group 3 (test substance) v. group 1 (control),about 95%
same,Increase of α-tocopherol content in the plasma,[1]; group 4 (adriamycin + test substance) v. group 2 (adriamycin + placebo),about 21%
same,Decrease of ferroxidase activity,[1]; [9],23%
same,Reduction of the adriamycin-induced increase in the concentration of lipid peroxides in the plasma,[1]; [9],about 32%
same,"% Effect of the test substance on plasma ferroxidase activity, Group 3 v. 1",[1]; [10],−5.7%
same,"% Effect of the test substance on plasma lipid peroxides, Group 3 v. 1",[1]; [10],+19.6%
same,"% Effect of the test substance on plasma α-tocopherol, Group 3 v. 1",[1]; [10],+95.2%
same,Ratio of heart weights to body weight,"[2]; Group 3: adriamycin 1 mg/kg i.v. twice a week + test substance 30 mg/kg daily oral, 4 weeks",2.79 ± 0.08 g/kg
same,% Effect of the test substance (group 3 v. 2) on hydroxyproline content of the heart,[2]; [11],−13.3%
same,% Effect of the test substance (group 3 v. 2) on ratio of heart weights to body weight,[2]; [11],−17.7%
same,Reduction of the adriamycin-induced increase in the heart/body weight ratio,[2]; group 3 v. group 2 (placebo),about 18%
same,Reduction of the adriamycin-induced increase in the hydroxyproline content,[2]; group 3 v. group 2 (placebo),about 13%
